Laboratory results taken from paper PMC8794255, “Small molecule inhibitor of Igf2bp1 represses Kras and a pro-oncogenic phenotype in cancer cells” (RNA Biology, 2021).
Where “and” joins values, the source holds several entries; their conditions need not be identical. Equal values may be shown once.

How the values were obtained:
ES2 cells = assay: Wound healing (cell migration) assay, ES2; assay type: cell-based, human
Procedure: (§1) Cells were seeded in 96 IncuCyte® ImageLock plates (20X10^3 cells per well) for 24 hours, to a near confluency of 95%, before the addition of increasing concentrations of compound. After a further 24 hours, wells were scratched using the IncuCyte® 96-well WoundMaker Tool, and the cells cultured for an additional 48 hours using the IncuCyte® S3 Live-Cell Analysis System (Essen BioScience). The plate was imaged at increments of 120 minutes for a period of 48 hours, and then analysed for relative wound healing.

[1] = tested on: Igf2bp1-luciferase reporter fusions in RKO cells; assay: Split-luciferase assay (Igf2bp1 dimerization) in RKO cells; assay type: cell-based; details: 50 μM 7773
Procedure: Vectors expressing different fragments of split luciferase reporters with flexible linker were procured from Addgene (catalogue # 58786, 58787, 58788 and 58789). The vectors were digested with EcoRI and XhoI. EcoRI and XhoI restriction enzyme sites were added to 5′ and 3′ ends of the coding region of IGF2BP1, respectively, using PCR. We constructed four split luciferase reporter vectors by cloning IGF2BP1 in different orientations with the luciferase fragments . Primers used for the amplification of IGF2BP1 were: […]
The RKO cells were seeded in DMEM with 10% calf serum 24 hrs prior to the transfection. Transfection was done using Lipofectamine 2000 with reporter plasmids and Renilla-luciferase expressing vector (as internal control). After 24 hrs, cells were lysed using passive lysis buffer (Promega catalogue # E1941). The lysates were cleared by centrifugation and its 20 μL volume was mixed with 100 μL of luciferase substrate solution for luminescence recording which was followed by addition of 100 μL of Stop-glo solution (Promega catalogue # E1910) with an additional luminescence reading. Both readings were detected by using GloMax 20/20 Luminometer (Promega), and the final value for each sample was the ratio of their two respective readings. […]

Igf2bp1 = molecular target: T1, Igf2bp1 (Homo sapiens, UniProt Q9NZI8); assay: Microscale thermophoresis (MST), full-length Igf2bp1; details: full-length protein, read-out: KD of compound binding to Igf2bp1
T1 construct: Recombinant full-length Igf2bp1 protein was labelled with RED-tris-NTA dye; made in house
T1 sequence (Q9NZI8 whole entry): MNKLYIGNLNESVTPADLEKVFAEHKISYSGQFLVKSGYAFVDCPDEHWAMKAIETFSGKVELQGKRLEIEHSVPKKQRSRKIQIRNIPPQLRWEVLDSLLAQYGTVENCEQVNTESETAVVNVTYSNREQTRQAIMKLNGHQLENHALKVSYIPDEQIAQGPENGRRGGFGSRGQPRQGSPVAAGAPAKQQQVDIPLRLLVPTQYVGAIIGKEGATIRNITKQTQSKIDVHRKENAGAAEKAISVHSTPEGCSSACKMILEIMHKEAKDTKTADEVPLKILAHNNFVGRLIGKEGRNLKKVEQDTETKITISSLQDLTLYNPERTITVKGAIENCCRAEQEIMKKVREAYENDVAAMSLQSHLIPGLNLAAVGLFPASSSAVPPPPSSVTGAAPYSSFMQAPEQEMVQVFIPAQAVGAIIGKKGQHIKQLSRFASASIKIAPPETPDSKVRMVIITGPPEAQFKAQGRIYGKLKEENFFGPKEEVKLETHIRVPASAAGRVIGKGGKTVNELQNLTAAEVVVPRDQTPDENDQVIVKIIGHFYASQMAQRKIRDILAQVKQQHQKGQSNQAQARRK
Procedure: (§2) Recombinant full-length Igf2bp1 protein was labelled with RED-tris-NTA dye using a Monolith NT His-Tag Labelling Kit (NanoTemper) while RRM12, KH12 and KH34 di-domain peptides were labelled using the Protein Labelling Kit RED NHS 2nd generation (NanoTemper). Labelled proteins were spun at 15,000 g for 5 min to eliminate aggregates. All samples were 2X labelled protein mix of Igf2bp1 (200 nM) in PBST and were combined (1:1) with serial dilutions of compound or Kras6 RNA in binding buffer (10mMTris pH = 7.5, 100 mM NaCl, 0.1 mM EDTA, 0.06% IPEGAL, 0.02 μg/μL tRNA, 2 mM DTT, 0.1 μg/μL heparin) in final volume of 20 μL, room temperature for 15 min. Samples were then loaded into standard capillaries (NanoTemper) and read in the Monolith NT.115 scanner (NanoTemper) using the red filter with reading conditions of 95% LED power and 40% MST power, 5 sec fluorescence before, 30 sec MST on, 5 sec fluorescence after and 25 sec delay between samples. Results were analysed using the MO Control software (NanoTemper) for curve fitting to KD.

H1299 cells = assay: qPCR of Igf2bp1 target RNAs in H1299 cells; assay type: cell-based, human
Procedure: Cells were grown for 12 hours in 12 well plates prior to incubation with the compound at different concentrations for an additional 12 or 24 hours. Total RNA was then extracted using EZ-RNA total RNA isolation kit (Biological Industries) and cDNA prepared from the RNA using the First Strand cDNA Synthesis kit (Quanta bio). Real time PCR was performed with Fast SYBR Green Master Mix (Thermo Fisher Scientific), and cDNA expression analysed with the Bio-Rad CFX Manager 3.1.

La = molecular target: T2, La (Homo sapiens, UniProt P05455); assay: MST, La protein; assay type: binding
T2 sequence (P05455 1-408): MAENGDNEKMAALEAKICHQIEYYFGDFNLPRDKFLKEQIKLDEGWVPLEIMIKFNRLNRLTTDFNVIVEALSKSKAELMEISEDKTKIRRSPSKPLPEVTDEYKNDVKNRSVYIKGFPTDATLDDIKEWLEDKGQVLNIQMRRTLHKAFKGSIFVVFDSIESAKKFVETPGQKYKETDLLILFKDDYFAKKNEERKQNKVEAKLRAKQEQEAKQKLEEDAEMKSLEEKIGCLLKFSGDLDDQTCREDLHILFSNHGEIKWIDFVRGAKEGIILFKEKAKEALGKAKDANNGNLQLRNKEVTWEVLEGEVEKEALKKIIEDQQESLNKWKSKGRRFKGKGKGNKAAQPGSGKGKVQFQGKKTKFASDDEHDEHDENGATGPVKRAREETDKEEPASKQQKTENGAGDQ

Igf2bp1 KH34 di-domain = molecular target: T3, Igf2bp1 KH34 di-domain (Homo sapiens, UniProt Q9NZI8); assay: MST, Igf2bp1 KH34 di-domain; details: read-out: KD of binding to KH34
T3 construct: Human Igf2bp1 di-domains RRM12 (M1-P188) and KH34 (P387-A574); 6xHis (N, cleaved yes); made in house; host or cells: E. coli BL21(DE3)
T3 sequence (Q9NZI8 387-574): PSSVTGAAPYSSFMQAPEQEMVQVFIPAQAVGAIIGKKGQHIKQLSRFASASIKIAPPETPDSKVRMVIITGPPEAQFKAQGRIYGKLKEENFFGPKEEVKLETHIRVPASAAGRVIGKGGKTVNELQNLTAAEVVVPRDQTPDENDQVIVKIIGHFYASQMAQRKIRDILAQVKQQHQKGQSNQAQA
Procedure: as §2
The open reading frame of Igf2bps were cloned into the pET-21(d) plasmid (Novagen) between the Nco1 and Xho1 sites, as previously described. […]

[2] = tested on: LKR-M cells expressing GFP alone; assay: Wound healing assay, LKR-M cells expressing GFP alone; assay type: cell-based, mouse; details: 20 μM 7773 vs DMSO
Procedure: as §1

[3] = tested on: wild-type luciferase in RKO cells; assay: Control (wild-type) luciferase in RKO cells; assay type: cell-based; details: 50 μM 7773
Procedure: The RKO cells were seeded in DMEM with 10% calf serum 24 hrs prior to the transfection. Transfection was done using Lipofectamine 2000 with reporter plasmids and Renilla-luciferase expressing vector (as internal control). After 24 hrs, cells were lysed using passive lysis buffer (Promega catalogue # E1941). The lysates were cleared by centrifugation and its 20 μL volume was mixed with 100 μL of luciferase substrate solution for luminescence recording which was followed by addition of 100 μL of Stop-glo solution (Promega catalogue # E1910) with an additional luminescence reading. Both readings were detected by using GloMax 20/20 Luminometer (Promega), and the final value for each sample was the ratio of their two respective readings. To test the effects of 7773, transfected cells with reporter plasmids were washed with PBS after 24 hrs of transfection and incubated with medium containing 7773.

O=C(c1ccc(Cn2cnnn2)cc1)N1CCCC(Nc2ccc3c(c2)OCO3)C1 (centres unmarked) [compound 7773]
Wound healing (ES2 cells; ES2, 20 μM): strongly inhibited
Wound healing (ES2 cells; ES2, lowest concentration 5 μM): discernible inhibition
Effect on split-luciferase luminescence [1]: significantly reduced luminescence
Kd (Igf2bp1): 17 µM
Steady state level of Kras mRNA (H1299 cells; H1299, 20 μM 7773, 12 hours): already reduced
Steady state levels of CD44, Kras, cMyc and SRF RNA (H1299 cells; H1299, 20 μM 7773, 24 hours): all of the RNAs significantly reduced
Levels of control RNAs that are not targets of Igf2bp1 (H1299 cells; H1299, 24 hours): not significantly affected
Binding to La (La): No binding
Kd (Igf2bp1 KH34 di-domain): 7.1 µM and 7.2 µM
Effect on migration of cells expressing GFP alone [2]: unaffected
Effect on activity of wild-type luciferase [3]: did not affect
